Measurements: patent US20260250318A1, “COMPOSITIONS AND METHODS FOR CROSSING THE BLOOD BRAIN BARRIER” (VOYAGER THERAPEUTICS, INC., priority 2022, published 2026)

Assays:
Conditions in all cases: synthetic library passage 3, intravenous, relative to wild-type AAV9
brain [1] = experiment: NGS fold enrichment of synthetic library (passage 3) in C57Bl/6 mice, first cross-species screen; format: in vivo
Experimental: (§1) After creation of the synthetic library with the sub-selected variants, the synthetic library was screened (passage 3) in two NHPs (2-4 years of age) and two strains of mice, BALB/c (n=3, 6-8 weeks of age) and C57Bl/6 mice (n=3, 6-8 weeks of age), in a first cross-species evolution screen. The animals were injected intravenously with the synthetic library. After a period in vivo, (e.g., 28-days) RNA was extracted from nervous tissue, e.g., brain, spinal cord, and DRG of the NHPs and the brains of mice. Following RNA recovery and RT-PCR amplification, a systematic NGS enrichment analysis was performed, and the peptides comprised within the variants were identified and the capsid enrichment ratio for each variant compared to the wild-type AAV9 control was calculated (fold enrichment relative to wild-type AAV9) (Table 9). […] All animals were dosed intravenously at […] across the screen.

[2] = tested on: brain, spinal cord, and DRG of the NHPs; experiment: NGS fold enrichment of synthetic library (passage 3) in NHPs, first cross-species screen; format: in vivo, cynomolgus macaques (Macaca fascicularis)
Experimental: as §1

brain [3] = experiment: NGS fold enrichment of synthetic library (passage 3) in BALB/c mice, first cross-species screen; format: in vivo
Experimental: as §1

[4] = RNA from brain of C57Bl/6 mice, NGS
[5] = RNA from spinal cord of NHPs, NGS
[6] = RNA from brain of BALB/c mice, NGS

| Sequence | Fold enrichment over AAV9 in the brain of Mice (C57Bl/6) (brain [1]; RNA NGS, brain of C57Bl/6 mice) [fold] | Fold enrichment over AAV9 in the brain of NHPs ([2]; RNA NGS, brain of NHPs) [fold] | Fold enrichment over AAV9 in the spinal cord of NHPs ([2]; RNA NGS, spinal cord of NHPs) [fold] | Fold enrichment over AAV9 in the brain of Mice (BALB/c) (brain [3]; RNA NGS, brain of BALB/c mice) [fold] | Fold enrichment over AAV9 in the brain of Mice (C57Bl/6) (brain [1]; [4]) [fold] | Fold enrichment over AAV9 in the brain of NHPs ([2]; RNA from brain of NHPs, NGS) [fold] | Fold enrichment over AAV9 in the spinal cord of NHPs [2, 5] [fold] | Fold enrichment over AAV9 in the brain of Mice (BALB/c) (brain [3]; [6]) [fold] |
| --- | --- | --- | --- | --- | --- | --- | --- | --- |
| GHHTTVQSGQNQQT | 0.851 | 2.177 | 6.245 | 0.755 | – | – | – | – |
| GHLTMHNSGQNHQT | 1.030 | 1.938 | 1.798 | 0.586 | – | – | – | – |
| GHMKGVTSGQNQQT | 0.807 | 1.081 | 2.814 | 0.413 | – | – | – | – |
| GHPSPHVSGQNQQT | 0.551 | 1.713 | 0.416 | 0.488 | – | – | – | – |
| GHSFVNRSGQNQQT | 1.305 | 2.447 | 11.148 | 0.756 | – | – | – | – |
| GHTLTLSSGQNQQT | 0.648 | 3.405 | 5.648 | 0.606 | – | – | – | – |
| GIARTTISGQNQQT | 0.819 | 1.078 | 1.783 | 0.330 | – | – | – | – |
| GIFMQTPSGQNQQT | 0.938 | 2.344 | 6.198 | 0.252 | – | – | – | – |
| GIILGASSGQNQQT | 1.378 | 3.630 | 4.868 | 0.865 | – | – | – | – |
| GILLATPSGQNQQT | 1.341 | 1.931 | 8.205 | 0.288 | – | – | – | – |
| GIMARDSSGQNQQT | 1.320 | 1.972 | 3.486 | 0.904 | – | – | – | – |
| GIPSIRESGQNQQT | – | – | – | – | 0.484 | 1.282 | 0.166 | 0.254 |
| GKPAGGLSGQNQQT | 0.708 | 1.085 | 2.805 | 0.739 | – | – | – | – |
| GKSFVPQSGQNQQT | 1.798 | 1.489 | 2.502 | 0.430 | – | – | – | – |
| GLAGHTVSGQNQQT | 0.972 | 3.632 | 0.229 | 0.202 | – | – | – | – |
| GLAHKTSSGQNQQT | 0.427 | 1.106 | 0.915 | 0.690 | – | – | – | – |
| GLGAYQSSGQNQQT | 1.407 | 1.574 | 0.696 | 0.688 | – | – | – | – |
| GLGSKNHSGQNQQT | – | – | – | – | 0.825 | 1.187 | 5.046 | 0.224 |
| GLGSKNPSGQNQQT | – | – | – | – | 1.184 | 1.147 | 1.629 | 0.424 |
